The target in the assay is T1, recombinant human NAE enzyme (Homo sapiens, UniProt Q8TBC4).
T1 construct: His (N); made in house; host or cells: Sf9 insect cells (baculovirus, Bac-to-Bac), purified on Ni-NTA
T1 sequence (Q8TBC4 1-463): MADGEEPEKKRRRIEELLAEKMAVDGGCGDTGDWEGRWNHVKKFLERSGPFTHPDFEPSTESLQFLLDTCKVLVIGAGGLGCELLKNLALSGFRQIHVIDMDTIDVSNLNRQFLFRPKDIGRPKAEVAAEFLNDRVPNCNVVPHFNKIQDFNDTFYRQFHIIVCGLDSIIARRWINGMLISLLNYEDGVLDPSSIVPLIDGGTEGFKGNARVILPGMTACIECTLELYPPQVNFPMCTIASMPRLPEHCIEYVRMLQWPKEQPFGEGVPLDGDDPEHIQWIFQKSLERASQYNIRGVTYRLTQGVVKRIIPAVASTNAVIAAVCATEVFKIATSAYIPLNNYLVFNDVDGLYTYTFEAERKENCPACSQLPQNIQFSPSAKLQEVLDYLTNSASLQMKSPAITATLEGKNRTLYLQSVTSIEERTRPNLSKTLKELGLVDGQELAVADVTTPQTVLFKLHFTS
T1 sequence (Q13564 1-534 partner): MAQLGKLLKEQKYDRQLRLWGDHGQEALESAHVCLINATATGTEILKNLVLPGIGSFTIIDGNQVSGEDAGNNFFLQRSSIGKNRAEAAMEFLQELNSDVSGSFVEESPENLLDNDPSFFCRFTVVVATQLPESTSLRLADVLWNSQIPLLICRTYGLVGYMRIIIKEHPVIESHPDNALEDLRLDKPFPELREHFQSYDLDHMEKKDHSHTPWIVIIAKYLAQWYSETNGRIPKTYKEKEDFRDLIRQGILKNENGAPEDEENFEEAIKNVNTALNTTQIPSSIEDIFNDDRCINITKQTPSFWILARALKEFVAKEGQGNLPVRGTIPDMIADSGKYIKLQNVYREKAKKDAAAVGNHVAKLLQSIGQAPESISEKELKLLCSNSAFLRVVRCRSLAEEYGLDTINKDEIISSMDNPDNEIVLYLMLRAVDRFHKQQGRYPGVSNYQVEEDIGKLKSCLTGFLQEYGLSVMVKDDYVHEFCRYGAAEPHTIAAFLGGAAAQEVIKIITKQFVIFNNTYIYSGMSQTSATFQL
As to the kind of experiment: Nedd8-Activating Enzyme (NAE) HTRF Assay. Type of assay: biochemical. To be noted: threshold statement: less than or equal to 100 nM; 20 μM ATP, 90 minutes at 24° C. As for the experimental part: Following manufacturer instructions, baculoviruses were generated with the Bac-to-Bac Expression System (Invitrogen) for the following proteins: untagged NAEα (APPBP1; NP_003896.1), N-terminally His-tagged NAEβ (UBE1C; NP_003959.3), untagged SAEα (SAE1; NP_005491.1), N-terminally His-tagged SAEβ (UBA2; NP_005490.1), N-terminally His-tagged murine UAE (UBE1X; NP_033483). NAEα/His-NAEβ and SAEα/His-SAEβ complexes were generated by co-infection of Sf9 cells, which were harvested after 48 hours. His-mUAE was generated by single infection of Sf9 cells and harvested after 72 hours. Expressed proteins were purified by affinity chromatography (Ni—NTA agarose, Qiagen) using standard buffers. Ubc12 (UBE2M; NP_003960.1), Ubc9 (UBE2I; NP_003336.1), Ubc2 (UBE2A; NP_003327.2) were subcloned into pGEX (Pharmacia) and expressed as N-terminally GST tagged fusion proteins in E. coli. Expressed proteins were purified by conventional affinity chromatography using standard buffers. Nedd8 (NP_006147), Sumo-1 (NP_003343) and Ubiquitin (with optimized codons) were subcloned into pFLAG-2 (Sigma) and expressed as N-terminally Flag tagged fusion proteins in E. coli. Expressed proteins were purified by conventional chromatography using standard buffers. Nedd8-Activating Enzyme (NAE) HTRF Assay. The NAE enzymatic reaction totaled 50 μL and contained 50 mM HEPES (pH 7.5), 0.05% BSA, 5 mM MgCl2, 20 μM ATP, 250 μM GSH, 0.01 μM Ubc12-GST, 0.075 μM Nedd8-Flag and 0.28 nM recombinant human NAE enzyme. The enzymatic reaction mixture, with and without compound inhibitor, was incubated at 24° C. for 90 minutes in a 384-well plate before termination with 25 μL of Stop/Detection buffer (0.1M HEPES pH 7.5, 0.05% Tween20, 20 mM EDTA, 410 mM KF, 0.53 nM Europium-Cryptate labeled monoclonal anti-FLAG M2 antibody (CisBio International) and 8.125 μg/mL PHYCOLINK goat anti-GST allophycocyanin (XL-APC) antibody (Prozyme)). After incubation for 3 hours at 24° C., quantification of the FRET was performed on the Analyst™ HT 96.384 (Molecular Devices).
A general note: In TR-FRET formats the signal depends on donor and acceptor labels being close together.

The source of these data is patent publication US8207177B2, “Inhibitors of E1 activating enzymes” (Millennium Pharmaceuticals, Inc., priority 2006, dated 2012).

Each structure is given as a SMILES string.

A word on the IC50: it is the concentration that gives 50% inhibition.

Take `NS(=O)(=O)OC[C@@H]1C[C@@H](n2ccc3c(Nc4ccccc4)ncnc32)C[C@@H]1O` [Compound I-39, [(1S,2S,4R)-4-(4-anilino-7H-pyrrolo[2,3-d]pyrimidin-7-yl)-2-hydroxycyclopentyl]methyl sulfamate]: the IC50 is at most 100 nM. Next, `CC1(C)C[C@H](Nc2ncnc3c2ccn3[C@@H]2C[C@@H](COS(N)(=O)=O)[C@@H](O)C2)c2ccccc21` (single isomer, unassigned) [Compound I-14]: at most 100 nM; `NS(=O)(=O)OC[C@@H]1C[C@@H](n2ccc3c(NCc4ccc(Cl)cc4)ncnc32)[C@H](O)[C@@H]1O` [Compound I-22, ((1S,2R,3S,4R)-4-{4-[(4-chlorobenzyl)amino]-7H-pyrrolo[2,3-d]pyrimidin-7-yl)-2,3-dihydroxycyclopentyl)methyl sulfamate]: at most 100 nM; `CCO[C@H]1Cc2ccccc2[C@H]1Nc1ncnc2c1ccn2[C@@H]1C[C@@H](COS(N)(=O)=O)[C@@H](O)C1` [Compound I-70, [(1S,2S,4R)-4-(4-{[(1R,2S)-2-ethoxy-2,3-dihydro-1H-inden-1-yl]amino}-7H-pyrrolo[2,3-d]pyrimidin-7-yl)-2-hydroxycyclopentyl]methyl sulfamate]: at most 100 nM. With `CC(C)(Cc1ncnc2c1ccn2[C@@H]1C[C@@H](COS(N)(=O)=O)[C@@H](O)C1)c1ccccc1` [Compound I-50, {(1S,2S,4R)-2-hydroxy-4-[4-(2-methyl-2-phenylpropyl)-7H-pyrrolo[2,3-d]-pyrimidin-7-yl]cyclopentyl}methyl sulfamate] the figure was at most 100 nM; with `NS(=O)(=O)OC[C@@H]1C[C@@H](n2ccc3c(N[C@H]4CCc5c(Br)cccc54)ncnc32)C[C@@H]1O` [Compound I-65, [(1S,2S,4R)-4-(4-{[(1S)-4-bromo-2,3-dihydro-1H-inden-1-yl]amino}-7H-pyrrolo[2,3-d]pyrimidin-7-yl)-2-hydroxycyclopentyl]methyl sulfamate], at most 100 nM.

Regarding `NS(=O)(=O)OC[C@@H]1C[C@@H](n2ccc3c(N[C@H]4CCc5ccccc54)ncnc32)[C@H](O)[C@@H]1O` [Compound I-17, ((1S,2R,3S,4R)-4-{4-[(1S)-2,3-dihydro-1H-inden-1-ylamino]-7H-pyrrolo[2,3-d]-pyrimidin-7-yl}-2,3-dihydroxycyclopentyl)methyl sulfamate], the IC50 is at most 100 nM.

Turning to `COC[C@H]1Cc2ccccc2C1Nc1ncnc2c1ccn2[C@@H]1C[C@@H](COS(N)(=O)=O)[C@@H](O)C1` (stereo in doubt) [Compound I-80, [(1S,2S,4R)-2-hydroxy-4-(4-{[(1S,2S)-2-(methoxymethyl)-2,3-dihydro-1H-inden-1-yl]amino}-7H-pyrrolo[2,3-d]pyrimidin-7-yl)cyclopentyl]methyl sulfamate], the IC50 is at most 100 nM. For the molecule `NS(=O)(=O)OC[C@@H]1C[C@@H](n2cc(F)c3c(N[C@H]4CCc5ccccc54)ncnc32)C[C@@H]1O` [Compound I-68, ((1S,2S,4R)-4-{4-[(1S)-2,3-dihydro-1H-inden-1-ylamino]-5-fluoro-7H-pyrrolo[2,3-d]pyrimidin-7-yl}-2-hydroxycyclopentyl)methyl sulfamate], the IC50 was at most 100 nM. Consider `NS(=O)(=O)OC[C@@H]1C[C@@H](n2ccc3c(CCc4ccccc4)ncnc32)C[C@@H]1O` [Compound I-28, {(1S,2S,4R)-2-hydroxy-4-[4-(2-phenylethyl)-7H-pyrrolo[2,3-d]pyrimidin-7-yl]-cyclopentyl}methyl sulfamate], for which the IC50 was at most 100 nM. With `NS(=O)(=O)OC[C@@H]1C[C@@H](n2cc(F)c3c(NCc4ccccc4)ncnc32)C[C@@H]1O` [Compound I-31, {(1S,2S,4R)-4-[4-(benzylamino)-5-fluoro-7H-pyrrolo[2,3-d]pyrimidin-7-yl]-2-hydroxycyclopentyl}methyl sulfamate] the figure was at most 100 nM. As to `Cc1ncnc2c1ccn2[C@@H]1C[C@@H](COS(N)(=O)=O)[C@@H](O)C1` [Compound I-46, [(1S,2S,4R)-2-hydroxy-4-(4-methyl-7H-pyrrolo[2,3-d]pyrimidin-7-yl)cyclopentyl]methyl sulfamate], the IC50 is at most 100 nM. Next, `CN(c1ncnc2c1ccn2[C@@H]1C[C@@H](COS(N)(=O)=O)[C@@H](O)C1)[C@H]1CCc2ccccc21` [Compound I-6, ((1S,2S,4R)-4-{4-[(1S)-2,3-dihydro-1H-inden-1-yl(methyl)amino]-7H-pyrrolo-[2,3-d]pyrimidin-7-yl}-2-hydroxycyclopentyl)methyl sulfamate]: at most 100 nM; `NS(=O)(=O)OC1CC(n2ccc3c(N[C@H]4CCc5ccccc54)ncnc32)CC1O` (stereo in doubt) [Compound I-78, (1R,2S,4S)-4-{4-[(1S)-2,3-dihydro-1H-inden-1-ylamino]-7H-pyrrolo[2,3-d]pyrimidin-7-yl}-2-hydroxycyclopentyl sulfamate]: at most 100 nM; `NS(=O)(=O)OC[C@@H]1C[C@@H](n2ccc3c(N[C@@H]4CCc5c(Cl)cccc54)ncnc32)C[C@@H]1O` [Compound I-63, [(1S,2S,4R)-4-(4-{[(1R)-4-chloro-2,3-dihydro-1H-inden-1-yl]amino}-7H-pyrrolo[2,3-d]pyrimidin-7-yl)-2-hydroxycyclopentyl]methyl sulfamate]: at most 100 nM. With `CC(C)O[C@H]1Cc2ccccc2[C@H]1Nc1ncnc2c1ccn2[C@@H]1C[C@@H](COS(N)(=O)=O)[C@@H](O)C1` [Compound I-54, [(1S,2S,4R)-2-hydroxy-4-(4-{[(1R,2S)-2-isopropoxy-2,3-dihydro-1H-inden-1-yl]-amino}-7H-pyrrolo[2,3-d]pyrimidin-7-yl)cyclopentyl]methyl sulfamate] the figure was at most 100 nM; with `CO[C@H]1Cc2ccccc2[C@H]1Nc1ncnc2c1ccn2[C@@H]1C[C@@H](COS(N)(=O)=O)[C@@H](O)C1` [Compound I-52, [(1S,2S,4R)-2-hydroxy-4-(4-{[(1R,2S)-2-methoxy-2,3-dihydro-1H-inden-1-yl]-amino}-7H-pyrrolo[2,3-d]pyrimidin-7-yl)cyclopentyl]methyl sulfamate], at most 100 nM; with `CO[C@@H]1Cc2ccccc2[C@H]1Nc1ncnc2c1ccn2[C@@H]1C[C@@H](COS(N)(=O)=O)[C@@H](O)C1` [Compound I-72, [(1S,2S,4R)-2-hydroxy-4-(4-{[(1R,2R)-2-methoxy-2,3-dihydro-1H-inden-1-yl]amino}-7H-pyrrolo[2,3-d]pyrimidin-7-yl)cyclopentyl]methyl sulfamate], at most 100 nM. With `C[C@@H](Nc1ncnc2c1ccn2[C@@H]1C[C@@H](COS(N)(=O)=O)[C@@H](O)C1)c1ccccc1` [Compound I-7, [(1S,2S,4R)-2-hydroxy-4-(4-{[(1R)-1-phenylethyl]amino}-7H-pyrrolo[2,3-d]-pyrimidin-7-yl)cyclopentyl]methyl sulfamate] the figure was at most 100 nM.
